Laboratory results as given in patent publication US10227357B2, “Compounds and methods for kinase modulation, and indications therefor” (Plexxikon Inc., priority 2012, dated 2019).

What was measured:
c-kit kinase = target: T1, c-kit kinase (Homo sapiens, UniProt P10721); test: c-Kit biochemical assay, AlphaScreen, 10 μM ATP; settings: c-kit biochemical inhibitory activity; read-out: Biochemical activity (IC50 μM) Kit
T1 construct: The c-kit (or kinase domain thereof) is an active kinase in AlphaScreen; poly-Histidine tag (in-house protein only) (cleaved yes); host or cells: E. coli BL21(DE3)RIL, co-expressed with PTP1B
How it was run: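 His-tagged c-Kit expressed in E. coli with co-expressed PTP1B (dephosphorylated), tag removed; 0.1 ng per reaction with biotinylated-peptide substrate in 50 mM HEPES pH 7.2, 5 mM MgCl2, 5 mM MnCl2, 5% DMSO, 10 μM ATP, 1 h at room temperature. Phosphorylation detected by AlphaScreen (streptavidin donor, PY20 acceptor beads); IC50 from 8-point 1:3 dilution series.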

c-kit mutant D816V = target: T2, c-kit mutant D816V (Homo sapiens, UniProt P10721, D816V/DEL694-753); test: c-Kit mutant D816V biochemical assay, AlphaScreen; settings: c-kit D816V biochemical inhibitory activity; read-out: Biochemical activity (IC50 μM) Kit D816V
T2 construct: residues 551-934, kinase insertion domain residues 694-753 deleted; 6x-histidine (N); made in house; host or cells: E. coli Arctic Express (DE3) RIL (Stratagene)
How it was run: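 Purified His-tagged c-Kit D816V (E. coli-expressed) assayed in 25 mM HEPES pH 7.2 with Mg/Mn, 5% DMSO and 10 μM ATP, 30 min at room temperature, 8-point 1:3 dilutions. Phosphorylation detected by AlphaScreen with streptavidin donor and PY20 acceptor beads; IC50 from signal versus concentration.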

T1 sequence (P10721 26-976): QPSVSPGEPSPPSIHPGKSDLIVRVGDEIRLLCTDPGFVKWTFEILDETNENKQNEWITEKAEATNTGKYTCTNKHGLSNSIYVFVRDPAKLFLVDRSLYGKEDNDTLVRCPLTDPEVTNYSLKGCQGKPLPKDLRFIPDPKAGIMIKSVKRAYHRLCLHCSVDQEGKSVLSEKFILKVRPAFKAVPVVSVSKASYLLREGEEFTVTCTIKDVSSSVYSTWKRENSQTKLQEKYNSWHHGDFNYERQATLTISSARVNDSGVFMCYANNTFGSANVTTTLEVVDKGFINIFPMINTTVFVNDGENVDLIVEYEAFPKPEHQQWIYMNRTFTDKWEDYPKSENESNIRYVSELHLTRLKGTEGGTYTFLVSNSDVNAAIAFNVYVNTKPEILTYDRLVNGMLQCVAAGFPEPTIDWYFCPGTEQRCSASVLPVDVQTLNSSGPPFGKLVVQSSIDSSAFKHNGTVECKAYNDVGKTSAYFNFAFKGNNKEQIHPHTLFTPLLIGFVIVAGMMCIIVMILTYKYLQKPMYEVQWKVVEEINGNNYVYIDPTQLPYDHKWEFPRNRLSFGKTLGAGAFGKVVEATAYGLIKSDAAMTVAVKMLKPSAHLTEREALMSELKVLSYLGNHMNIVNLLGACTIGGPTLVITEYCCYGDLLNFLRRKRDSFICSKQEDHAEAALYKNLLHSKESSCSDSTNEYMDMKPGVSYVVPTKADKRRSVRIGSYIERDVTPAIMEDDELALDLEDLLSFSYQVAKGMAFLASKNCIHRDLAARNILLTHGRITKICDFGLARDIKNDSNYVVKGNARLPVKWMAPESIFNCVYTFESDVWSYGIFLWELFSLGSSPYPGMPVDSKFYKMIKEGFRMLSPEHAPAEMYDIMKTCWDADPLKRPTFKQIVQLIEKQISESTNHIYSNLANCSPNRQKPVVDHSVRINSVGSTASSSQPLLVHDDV
T2 sequence (P10721 with tags, fused parts or gaps DEL694-753/D816V): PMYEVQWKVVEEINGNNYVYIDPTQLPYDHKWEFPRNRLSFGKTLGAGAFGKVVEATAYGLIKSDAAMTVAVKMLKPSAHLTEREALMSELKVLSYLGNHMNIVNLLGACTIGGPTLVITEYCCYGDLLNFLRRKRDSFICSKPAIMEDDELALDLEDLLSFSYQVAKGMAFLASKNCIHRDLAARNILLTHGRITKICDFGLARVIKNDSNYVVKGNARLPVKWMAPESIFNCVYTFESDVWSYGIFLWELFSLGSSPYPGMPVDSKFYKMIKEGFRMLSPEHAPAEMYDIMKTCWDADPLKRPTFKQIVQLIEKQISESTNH

Compound	IC50 (c-kit kinase) [µM]	IC50 (c-kit mutant D816V) [µM]
Cc1ccc(-c2cc3c(N4CCN(C(=O)N[C@@H](C)c5cccc(F)c5)C(C)(C)C4)ncnc3[nH]2)cn1 [P-0007, N-[(1S)-1-(3-fluorophenyl)ethyl]-2,2-dimethyl-4-[6-(6-methyl-3-pyridyl)-7H-pyrrolo[2,3-d]pyrimidin-4-yl]piperazine-1-carboxamide]	10 to 200	0.0001 to 1
C[C@H](NC(=O)N1CCN(c2ncnc3[nH]c(-c4ccc(F)cc4)cc23)CC1(C)C)c1cccc(Cl)c1 [P-0008, N-[(1S)-1-(3-chlorophenyl)ethyl]-4-[6-(4-fluorophenyl)-7H-pyrrolo[2,3-d]pyrimidin-4-yl]-2,2-dimethyl-piperazine-1-carboxamide]	1 to 10	0.0001 to 1
COc1cccc([C@H](C)NC(=O)N2CCN(c3ncnc4[nH]c(-c5ccnc(OC)c5)cc34)CC2(C)C)c1 [P-0009, N-[(1S)-1-(3-methoxyphenyl)ethyl]-4-[6-(2-methoxy-4-pyridyl)-7H-pyrrolo[2,3-d]pyrimidin-4-yl]-2,2-dimethyl-piperazine-1-carboxamide]	1 to 10	0.0001 to 1
Cn1cc(-c2cc3c(N4CCN(c5nc6ccccc6[nH]5)CC4)ncnc3[nH]2)cn1 [P-0010, 4-[4-(1H-benzimidazol-2-yl)piperazin-1-yl]-6-(1-methylpyrazol-4-yl)-7H-pyrrolo[2,3-d]pyrimidine]	0.0001 to 1	0.0001 to 1
Fc1ccc(-c2cc3c(N4CCN(c5nc6ccccc6[nH]5)CC4)ncnc3[nH]2)cc1 [P-0011, 4-[4-(1H-benzimidazol-2-yl)piperazin-1-yl]-6-(4-fluorophenyl)-7H-pyrrolo[2,3-d]pyrimidine]	10 to 200	0.0001 to 1
COc1cc(-c2cc3c(N4CCN(C(=O)N[C@@H](C)c5cccc(OC(F)F)c5)C(C)(C)C4)ncnc3[nH]2)ccn1 [P-0012, N-[(1S)-1-[3-(difluoromethoxy)phenyl]ethyl]-4-[6-(2-methoxy-4-pyridyl)-7H-pyrrolo[2,3-d]pyrimidin-4-yl]-2,2-dimethyl-piperazine-1-carboxamide]	1 to 10	0.0001 to 1
Cc1ccc(-c2cc3c(N4CCN(c5nc6ccccc6[nH]5)CC4)ncnc3[nH]2)cn1 [P-0013, 4-[4-(1H-benzimidazol-2-yl)piperazin-1-yl]-6-(6-methyl-3-pyridyl)-7H-pyrrolo[2,3-d]pyrimidine]	1 to 10	0.0001 to 1
C[C@H](NC(=O)N1CCN(c2ncnc3[nH]c(-c4ccc(F)cc4)cc23)C[C@H]1C)c1cccc(OC(F)F)c1 [P-0014, (2R)-N-[(1S)-1-[3-(difluoromethoxy)phenyl]ethyl]-4-[6-(4-fluorophenyl)-7H-pyrrolo[2,3-d]pyrimidin-4-yl]-2-methyl-piperazine-1-carboxamide]	1 to 10	0.0001 to 1
[2H]C([2H])([2H])Oc1cccc([C@H](C)NC(=O)N2CCN(c3ncnc4[nH]c(-c5ccc(F)cc5)cc34)CC2)c1 [P-0015, 4-[6-(4-fluorophenyl)-7H-pyrrolo[2,3-d]pyrimidin-4-yl]-N-[(1S)-1-[3-(trideuteriomethoxy)phenyl]ethyl]piperazine-1-carboxamide]	1 to 10	0.0001 to 1
C[C@H](NC(=O)N1CCN(c2ncnc3[nH]c(-c4ccc(F)cc4)cc23)CC1)c1cccc(N(C)C)c1 [P-0016, N-[(1S)-1-[3-(dimethylamino)phenyl]ethyl]-4-[6-(4-fluorophenyl)-7H-pyrrolo[2,3-d]pyrimidin-4-yl]piperazine-1-carboxamide]	1 to 10	0.0001 to 1
COc1ccc([C@H](C)NC(=O)N2CCN(c3ncnc4[nH]c(-c5ccc(F)cc5)cc34)C[C@H]2C)cc1 [P-0018, (2R)-4-[6-(4-fluorophenyl)-7H-pyrrolo[2,3-d]pyrimidin-4-yl]-N-[(1S)-1-(4-methoxyphenyl)ethyl]-2-methyl-piperazine-1-carboxamide]	1 to 10	0.0001 to 1
COc1ccc([C@@H](C)NC(=O)N2CCN(c3ncnc4[nH]c(-c5ccc(Cl)cc5)cc34)C[C@H]2C)cc1 [P-0019, (2R)-4-[6-(4-chlorophenyl)-7H-pyrrolo[2,3-d]pyrimidin-4-yl]-N-[(1R)-1-(4-methoxyphenyl)ethyl]-2-methyl-piperazine-1-carboxamide]	10 to 200	1 to 10
C[C@H](NC(=O)N1CCN(c2ncnc3[nH]c(-c4ccc(Cl)cc4)cc23)C[C@H]1C)c1ccc(Cl)cc1 [P-0020, (2R)-N-[(1S)-1-(4-chlorophenyl)ethyl]-4-[6-(4-chlorophenyl)-7H-pyrrolo[2,3-d]pyrimidin-4-yl]-2-methyl-piperazine-1-carboxamide]	1 to 10	1 to 10
C[C@H](NC(=O)N1CCN(c2ncnc3[nH]c(-c4ccc(Cl)cc4)cc23)C[C@H]1C)c1ccc(F)cc1 [P-0023, (2R)-4-[6-(4-chlorophenyl)-7H-pyrrolo[2,3-d]pyrimidin-4-yl]-N-[(1S)-1-(4-fluorophenyl)ethyl]-2-methyl-piperazine-1-carboxamide]	10 to 200	0.0001 to 1
COc1cccc([C@H](C)NC(=O)N2CCN(c3ncnc4[nH]c(-c5ccc(Cl)cc5)cc34)C[C@H]2C)c1 [P-0024, (2R)-4-[6-(4-chlorophenyl)-7H-pyrrolo[2,3-d]pyrimidin-4-yl]-N-[(1S)-1-(3-methoxyphenyl)ethyl]-2-methyl-piperazine-1-carboxamide]	1 to 10	0.0001 to 1
C[C@H](NC(=O)N1CCN(c2ncnc3[nH]c(-c4ccc(F)cc4)cc23)CC1)c1cccc(Cl)c1 [P-0027, N-[(1S)-1-(3-chlorophenyl)ethyl]-4-[6-(4-fluorophenyl)-7H-pyrrolo[2,3-d]pyrimidin-4-yl]piperazine-1-carboxamide]	10 to 200	0.0001 to 1
COc1cccc([C@H](C)NC(=O)N2CCN(c3ncnc4[nH]c(-c5ccc(F)cc5)cc34)C[C@H]2C)c1 [P-0028, (R)-4-[6-(4-Fluoro-phenyl)-7H-pyrrolo[2,3-d]pyrimidin-4-yl]-2-methyl-piperazine-1-carboxylic acid [(S)-1-(3-methoxy-phenyl)-ethyl]-amide]	0.0001 to 1	0.0001 to 1
C[C@H](NC(=O)N1CCN(c2ncnc3[nH]c(-c4ccc(F)cc4)cc23)C[C@H]1C)c1ccc(Cl)cc1 [P-0029, (2R)-N-[(1S)-1-(4-chlorophenyl)ethyl]-4-[6-(4-fluorophenyl)-7H-pyrrolo[2,3-d]pyrimidin-4-yl]-2-methyl-piperazine-1-carboxamide]	10 to 200	0.0001 to 1
C[C@H](NC(=O)N1CCN(c2ncnc3[nH]c(-c4ccc(F)cc4)cc23)C[C@H]1C)c1ccc(F)cc1 [P-0030, (2R)-N-[(1S)-1-(4-fluorophenyl)ethyl]-4-[6-(4-fluorophenyl)-7H-pyrrolo[2,3-d]pyrimidin-4-yl]-2-methyl-piperazine-1-carboxamide]	10 to 200	0.0001 to 1
COc1ccc([C@@H](C)NC(=O)N2CCN(c3ncnc4[nH]c(-c5ccc(F)cc5)cc34)C[C@H]2C)cc1 [P-0031, (2R)-4-[6-(4-fluorophenyl)-7H-pyrrolo[2,3-d]pyrimidin-4-yl]-N-[(1R)-1-(4-methoxyphenyl)ethyl]-2-methyl-piperazine-1-carboxamide]	10 to 200	1 to 10
COc1cccc([C@@H](C)NC(=O)N2CCN(c3ncnc4[nH]c(-c5ccc(F)cc5)cc34)C[C@H]2C)c1 [P-0032, (2R)-4-[6-(4-fluorophenyl)-7H-pyrrolo[2,3-d]pyrimidin-4-yl]-N-[(1R)-1-(3-methoxyphenyl)ethyl]-2-methyl-piperazine-1-carboxamide]	10 to 200	1 to 10
C[C@@H]1CN(c2ncnc3[nH]c(-c4ccc(F)cc4)cc23)CCN1C(=O)N[C@H](C)c1ccc(Cl)cc1 [P-0035, (2R)-N-[(1R)-1-(4-chlorophenyl)ethyl]-4-[6-(4-fluorophenyl)-7H-pyrrolo[2,3-d]pyrimidin-4-yl]-2-methyl-piperazine-1-carboxamide]	10 to 200	1 to 10
C[C@H]1CN(c2ncnc3[nH]c(-c4ccncc4)cc23)CCN1C(=O)NCc1ccc(Cl)cc1 [P-0044, (2S)-N-[(4-chlorophenyl)methyl]-2-methyl-4-[6-(4-pyridyl)-7H-pyrrolo[2,3-d]pyrimidin-4-yl]piperazine-1-carboxamide]	0.0001 to 1	0.0001 to 1
C[C@H]1CN(c2ncnc3[nH]c(-c4ccncc4)cc23)CCN1C(=O)Nc1ccc(Cl)cc1 [P-0045, (2S)-N-(4-chlorophenyl)-2-methyl-4-[6-(4-pyridyl)-7H-pyrrolo[2,3-d]pyrimidin-4-yl]piperazine-1-carboxamide]	1 to 10	1 to 10
COc1cccc([C@H](C)NC(=O)N2CCN(c3ncnc4[nH]c(C#CC5CC5)cc34)CC2)c1 [P-0047, 4-[6-(2-cyclopropylethynyl)-7H-pyrrolo[2,3-d]pyrimidin-4-yl]-N-[(1S)-1-(3-methoxyphenyl)ethyl]piperazine-1-carboxamide]	1 to 10	0.0001 to 1
CN(C)c1ccc(NC(=O)N2CCN(c3ncnc4[nH]c(C#CC5CC5)cc34)CC2)cc1 [P-0052, 4-[6-(2-cyclopropylethynyl)-7H-pyrrolo[2,3-d]pyrimidin-4-yl]-N-(4-dimethylaminophenyl)piperazine-1-carboxamide]	1 to 10	10 to 200
